Experimental data published in patent US4629739A, “Substituted sulfonamidobenzamides and method of treating arrhythmias” (priority 1985, dated 1986).
“Also recorded” adds a separate entry of the source. Like-named read-outs stand apart in the source and are kept apart here.

Assays:
cardiac tissue [1] = test: conduction and refractoriness in the cardiac tissue
cardiovascular function [2] = test: cardiovascular / hemodynamic depression in vivo; conditions: doses 10 to 30 times the therapeutic dose (1-3 mg/kg)
arrhythmia [3] = test: therapeutic dose; conditions: in vivo
local anesthetic action = conditions: doses up to 50-100 times the concentration which prolongs action potential duration by 20%
[4] = system: ganglionic and vagal transmission; test: effects on ganglionic and vagal transmission; format: in vivo; conditions: doses up to 10 mg/kg (i.e., 3-10 times the effective dose)
[5] = system: canine cardiac Purkinje fibers; test: action potential duration and upstroke by standard electrophysiological techniques in normal canine Purkinje fibres; format: cell-based
Text: The action of the compounds of this invention is attributed to their ability to prolong the action potential of the cardiac tissue. Therefore, they are Class III antiarrhythmic agents within the Vaughan-Williams classification of antiarrhythmic agents. Such activity has been analyzed in several procedures, for instance, utilizing standard electrophysiological techniques to measure resting potential, action potential amplitude, duration, rate of rise and refractory periods of normal canine Purkinje fibres; and also utilizing re-entrant arrhythmias induced by programmed electrical stimulation in the conscious dog.

[6] = system: re-entrant ventricular tachycardia; test: model of re-entrant ventricular tachycardia in dogs; format: in vivo, dog; conditions: anesthetized dogs; times more potent than acecainide
cardiovascular function [7] = conditions: cited from earlier work; for cardiovascular / hemodynamic depression in vivo: doses approximating the therapeutic dose; for depression of cardiac function: Class I drugs
cardiac tissue [8] = conditions: cited from earlier work; for effect on conduction: known drugs
man = conditions: cited from earlier work; for drug induced lupus erythematosis: in man
arrhythmia [9] = conditions: cited from earlier work
[10] = cited from earlier work
[11] = system: ganglionic and vagal transmission; conditions: in vivo; literature; cited from earlier work
cardiac action potential = conditions: in vitro; Goodman & Gilman, 6th Ed., 1980, pg. 768; cited from earlier work

local anesthetic action (local anesthetic action) | Compound | conduction disturbances in the heart / effect on conduction (cardiac tissue [1]) | cardiovascular depression in vivo (cardiovascular function [2]) | therapeutic dose (arrhythmia [3]) | effects on ganglionic or vagal transmission [4] | effect on action potential duration [5] | effect on action potential upstroke [5] | potency relative to acecainide in a model of re-entrant ventricular tachycardia [6] | cardiovascular / hemodynamic depression in vivo (cardiovascular function [7]) | effect on conduction (cardiac tissue [8]) | drug induced lupus erythematosis (man) | depression of cardiac function (cardiovascular function [7]) | other results
No local anesthetic action | CS(=O)(=O)Nc1ccc(C(=O)NCCNCc2ccccc2)cc1.Cl [4-[(Methylsulfonyl)amino]-N-[2-((phenylmethyl)amino)ethyl]benzamide hydrochloride] | no conduction disturbances in the heart | no evidence for cardiovascular depression | 1 to 3 mg/kg | nor is there any evidence for effects on ganglionic or vagal transmission | prolong action potential duration | without slowing the action potential upstroke (it may be increased) | 10 times | – | – | – | – | –
No local anesthetic action | CCCCCCCNCCNC(=O)c1ccc(NS(C)(=O)=O)cc1.Cl [N-[2-(Heptylamino)ethyl]-4-[(methylsulfonyl)amino]benzamide hydrochloride] | no conduction disturbances in the heart | no evidence for cardiovascular depression | 1 to 3 mg/kg | nor is there any evidence for effects on ganglionic or vagal transmission | prolong action potential duration | without slowing the action potential upstroke (it may be increased) | 10 times | – | – | – | – | –
– | CCN(CC)CCNC(=O)c1ccc(NC(C)=O)cc1 [acecainide] | – | – | – | – | – | – | – | causes such depression at doses approximating the therapeutic dose | little effect on conduction of the cardiac action potential | shown to cause lupus | – | mutagenic activity relative to procainamide (Ames Test) (bacteria (Ames Test)): one-half as active; prolongation of refractoriness (cardiac tissue [8]; known drug): does prolong refractoriness; incidence of lupus relative to procainamide (man; versus procainamide): significantly lower than for procainamide; antiarrhythmic activity (arrhythmia [9]; reported): antiarrhythmic activity; deacetylation in man [10]: deacetylated in man
– | CC(C)N(CCC(C(N)=O)(c1ccccc1)c1ccccn1)C(C)C (stereo not shown) [disopyramide] | – | – | – | – | – | – | – | – | slowing conduction | – | depress cardiac function | –
– | CCN(CC)CCNC(=O)c1ccc(N)cc1 [procainamide] | – | – | – | – | – | – | – | causes cardiovascular depression; also recorded: causes such depression at doses approximating the therapeutic dose | slowing conduction | drug induced lupus erythematosis | depress cardiac function | level showing significant mutagenic potential (Ames Test) (bacteria (Ames Test)): ≤ 0.2 mg/plate; ganglionic and vagal transmission [11]: blocks ganglionic and vagal transmission; effect on action potential duration (cardiac action potential): prolongs action potential duration; effect on action potential upstroke (cardiac action potential): slows action potential upstroke; therapeutic dose (arrhythmia [9]; in vivo, literature): 20 to 40 mg/kg
– | C=C[C@H]1C[N@@]2CC[C@H]1C[C@@H]2[C@@H](O)c1ccnc2ccc(OC)cc12 [quinidine] | – | – | – | – | – | – | – | – | slowing conduction | – | depress cardiac function | –
